Reference: ChEMBL document CHEMBL3507680, “University of Dundee, Gates Library screen for HepG2 cell viability”

Test: Human HepG2 cell viability assay in 384 well format
Assay type: toxicity, cell-based
Set-up: dose 125 nL, time 70.5 hour; cytotoxicity at 70.5 h: concentration not given beside the values
Details: HepG2 cells, read-out: Inhibition

| SMILES | cytotoxicity at 70.5 h |
| --- | --- |
| COC(=O)CNC(=O)C12CCC(=O)N1c1cc(Cl)ccc1S2 (stereo unspecified) | -1.84% |
| CCc1noc(CN(CC(=O)N2CCCCC2)c2ccc(C)cc2)n1 | -1.63% |
| Nc1cc2c(nn1)CCN(C(=O)c1csc(-c3ccccc3)n1)C2 | -1.92% |
| CC(C)(C)c1cnc(CN2CCC(NC(=O)CC3CCCC3)CC2)o1 | 14% |
| Cc1ncc(C(=O)NC2CCN(CCOc3ccc(Br)cc3)CC2)s1 | -4.58% |
| O=C(CCc1cccc(Cl)c1)NS(=O)(=O)Cc1ccon1 | 1.74% |
| O=C(CCc1ccco1)NS(=O)(=O)Cc1ccon1 | -3.83% |
| COCCNC(=O)c1nc(-c2cn(C)cn2)n2ccccc12 | -7.59% |
| O=C(c1cscn1)N1C[C@H]2CCC[C@@]2(COCc2ccccn2)C1 | -6.34% |
| CCS(=O)(=O)N1CCCn2nnc(CNC(C)=O)c2C1 | 7.38% |
| O=C([C@H]1C[C@@H]2CN(c3ncc(F)cn3)C[C@H]1O2)N1CCCC1 | -9.42% |
| COC[C@@H]1CCC[C@@]12CN(C(=O)N(C)C)CCO2 | 0.626% |
| CCOCc1cnc2n1CCN(C(=O)c1ccccc1)C2C (stereo unspecified) | 19.2% |
| CC(=O)NCc1nnn2c1CN(c1ncc(C)cn1)CCC2 | -20.5% |
| CCOCc1cnc2n1CCN(C(=O)c1cn(C)c3ccccc13)C2C (stereo unspecified) | 8.97% |
| COCC(=O)NCc1cc(=O)n2c(n1)CN(Cc1ccco1)CCC2 | 2.27% |
| Cn1nc(C(=O)N2CCOCC2)c2c1CN(CC1CCC1)C2 | -5.26% |
| COCC(=O)NCc1cc(=O)n2c(n1)CN(Cc1nccs1)CCC2 | -5.03% |
| O=C(Cc1ccsc1)N1C[C@@H]2COC[C@]2(COc2cccnc2)C1 | -6.1% |
| O=C(c1ccnnc1)N1CCC2(CC1)CCN(C(=O)c1cccnc1)C2 | -0.196% |
| CNC(=O)N1CC[C@@H]2CN(Cc3cccc(OC)c3)S(=O)(=O)[C@@H]2CC1 | -11.1% |
| COCCC(=O)N1CCC2(COCc3cnc(-c4cccnc4)nc32)C1 (stereo unspecified) | -6.92% |

| SMILES | cytotoxicity at 70.5 h |
| --- | --- |
| Cn1nc(COc2cccnc2)c2c1CCN(c1ncccn1)C2 | -14.2% |
| CS(=O)(=O)N1C[C@@H](NC(=O)c2ccno2)[C@@H]2OCCC[C@@H]21 | -12.2% |
| Cc1cnc(N2CCc3onc(COc4cccnc4)c3C2)nc1 | -3.25% |
| CC(C)C(=O)N1CCC2(COCc3cnc(-c4cccnc4)nc32)C1 (stereo unspecified) | -7.75% |
| CN(C)S(=O)(=O)N1CCC2(COCc3cnc(-c4cccnc4)nc32)C1 (stereo unspecified) | -9.11% |
| CS(=O)(=O)NC[C@]12COC[C@H]1CN(C(=O)C1CCSCC1)C2 | -5.88% |
| Cc1noc([C@H]2C[C@@H]3CCN(C(=O)c4cccn4C)C[C@H]3O2)n1 | -3.46% |
| CCC(Nc1nc(C)nc2onc(C)c12)c1cccs1 (stereo unspecified) | -2.98% |
| COCc1noc(CCNC(=O)c2cc(C)c(C)[nH]c2=O)n1 | -7.79% |
| CCCSCC(=O)N1CCCC(CO)(CCC)C1 (stereo unspecified) | -22.8% |
| O=C1CCCN1C1CCN(S(=O)(=O)CCOc2ccc(F)cc2)CC1 | 23.9% |
| CC(C)=CCN1C[C@H]2CC[C@@H]1CN(C(=O)CCc1n[nH]c(C)n1)C2 | -1.3% |
| Cc1cc(C(=O)N2CCCC(c3ccc(C(=O)O)cc3)C2)c(C)o1 (stereo unspecified) | -17.2% |
| O=C(CN1CCOCC1)N1CCC2(CCCN(C3CCOCC3)C2=O)C1 (stereo unspecified) | 0.199% |
| Cc1noc([C@@H]2CCCN2C(=O)C2CCN(CC(N)=O)CC2)n1 | -5.63% |
| COCc1noc(-c2ccc(N(C)Cc3ccc(C)o3)nc2)n1 | -2.55% |
| Cc1nc2c(c(=O)n1C)CCN(Cc1cc3cc[nH]c3cn1)CC2 | 10.6% |
| CC(C)CCN1CCCC(Cn2cc(CCO)nn2)C1 (stereo unspecified) | -2.37% |
| CC(C)Nc1cc(N2CCCC3(CN(C)C(=O)O3)C2)ncn1 (stereo unspecified) | 15% |
| O=C(O)c1cc(-c2ccncc2)cc(S(=O)(=O)N2CCSCC2)c1 | -6.71% |
| COCCc1noc(C2CCCN(c3ncnc4c3CCC4)C2)n1 (stereo unspecified) | -13.9% |
| Cc1cc(N[C@H]2CN(CC(C)(C)N3CCOCC3)C[C@@H]2C2CC2)ncn1 | -15.4% |

| SMILES | cytotoxicity at 70.5 h |
| --- | --- |
| CCc1ncc(C(=O)N2CCCOC(Cn3cccn3)C2)cn1 (stereo unspecified) | -0.891% |
| CN(Cc1n[nH]c2c1CCC2)c1nc(C2CCCC2)nc2c1CNC2 | -8.94% |
| Cn1ccnc1CN1C[C@@H](CN2CCCC2)[C@@H](CO)C1 | -5.13% |
| Cn1ccnc1C1CCN(S(=O)(=O)c2ccc3oc(=O)[nH]c3c2)CC1 | -9.3% |
| Cc1cnc(C)c(N2CCC(C(=O)O)(n3ccc(C(C)(C)C)n3)CC2)n1 | 30.8% |
| COc1cccc2ccc(CN3CCN(c4ncccn4)CC3)nc12 | -5.87% |
| O=C(NCCc1csc(-c2cccnc2)n1)c1cnn2c1CCCC2 | -7.57% |
| O=S(=O)(NCC1CCCN(Cc2ccccc2F)C1)C1CC1 (stereo unspecified) | -5.21% |
| O=C(C1CC1)N1CCc2[nH]cnc2C12CCN(C1CCOCC1)CC2 | -2.02% |
| COCCN(Cc1ccc(C)cc1)Cc1nccn1C | -0.21% |
| COc1cc2c(cc1C(=O)N1CCCCC1c1ccccn1)CCC2 (stereo unspecified) | -24% |
| COc1ccc(C(=O)C2CCCN(Cc3cccc(F)c3)C2)c(OC)c1 (stereo unspecified) | -0.757% |
| Cc1[nH]c2ccc(CNC3CCN(Cc4ccccn4)CC3)cc2c1C | 3.44% |
| CN(Cc1ccsc1)C(=O)c1ccc(C2CCCO2)s1 (stereo unspecified) | 30.9% |
| COCC1CCN(C(=O)c2cn(Cc3cccc(C(F)(F)F)c3)nn2)C1 (stereo unspecified) | -12.5% |
| Cc1ccsc1CN(Cc1ncccc1C(=O)O)C1CC1 | -5.62% |
| Cc1cccc(C(C(=O)N2CC(Oc3ccccc3F)C2)N(C)C)c1 (stereo unspecified) | -1.02% |
| FC(F)(F)CCc1ccnc(N2CCN(Cc3ccncc3)CC2)n1 | -13.8% |
| CCC(C)N(Cc1cnc(NCC(=O)O)nc1)Cc1ccsc1 (stereo unspecified) | -7.35% |
| Cc1ccc([C@@H]2CN(C(=O)c3cc(C)no3)C[C@H]2NC(=O)C2CC2)cc1 | -6.47% |
| CN(C(=O)CC1=CCCCC1)C1CCCN(C2Cc3ccccc3C2)C1 (stereo unspecified) | -0.808% |
| CNC(=O)[C@@H]1C[C@@H](N)CN1c1nc(N2CCCC2)nc(C)c1C | -10.2% |

| SMILES | cytotoxicity at 70.5 h |
| --- | --- |
| Cc1cc(C)c2c(NCCC34CCCN3CCC4)ncnc2n1 | -3.78% |
| Cc1cc(C)c2ncn(CCOCCO)c(=O)c2c1 | -5.3% |
| COCCC1(CO)CCCN(Cc2ccc(C(F)(F)F)cc2)C1 (stereo unspecified) | -4.92% |
| c1cnc(N2CCOCC3(C2)CN(c2nccs2)CCO3)nc1 (stereo unspecified) | -7.1% |
| CS(=O)(=O)CC(=O)N1C[C@H]2CCC[C@@]2(COc2ccccn2)C1 | 12.7% |
| CS(=O)(=O)CC(=O)N1C[C@H]2CCC[C@@]2(COCc2ccncc2)C1 | -3.98% |
| NC(=O)CC1CC2(CCNCC2)c2cc(F)ccc21 (stereo unspecified) | -7.94% |
| COCC1CC2(CCN(c3cc(OC)ncn3)CC2)CN1C(C)C (stereo unspecified) | -8.64% |
| COCC1CC2(CCN(c3ccc(C)nn3)CC2)CN1C(C)C (stereo unspecified) | -10.4% |
| CCO[C@H]1CN(CC2CC2)[C@@H]2CCCO[C@H]12 | 1.44% |
| COc1cccc(CN2C[C@@H]3COC[C@]3(CNC(=O)C3CC3)C2)c1 | -9.15% |
| COCC1CC2(CCN(c3cccc(C)n3)CC2)CN1c1ncccn1 (stereo unspecified) | -10.3% |
| O=C(c1cccnc1)N1CCC2(CCN(C(=O)c3ccco3)CC2)C1 | 2.92% |
| CCC1=N[C@@]2(CC[C@@H]3CN(Cc4ccc(F)cc4)C[C@@H]32)C(=O)N1C | 0.293% |
| O=C(c1cccnc1)N1CCC2(CCN(C(=O)N3CCCC3)CC2)C1 | -0.226% |
| CC(C)N1CCc2c(C(=O)N3CCOCC3)nn(C)c2C1 | 0.371% |
| COCC(=O)NC1CC2(CCN(CCO)CC2)c2ccccc21 (stereo unspecified) | 8.06% |
| O=C(NCCc1cccs1)[C@H]1CO[C@H]2CCN(C3CCC3)C[C@H]2C1 | -0.468% |
| CCC1=N[C@@]2(CC[C@@H]3CN(Cc4ccccc4C)C[C@@H]32)C(=O)N1C | 0.166% |
| CCC1=N[C@@]2(CC[C@@H]3CN(Cc4cccc(Cl)c4)C[C@@H]32)C(=O)N1C | 16.7% |
| O=C(COC1CCCC1)N1C[C@@H]2COC[C@]2(COc2cccnc2)C1 | 3.14% |
| O=C(NCCc1cccs1)[C@H]1CO[C@H]2CCN(CC3CC3)C[C@H]2C1 | -5.6% |

| SMILES | cytotoxicity at 70.5 h |
| --- | --- |
| Cn1cccc1C(=O)N1CCC2(CCN(C(=O)c3cccnc3)C2)CC1 | 3.23% |
| CC(C)CNC(=O)N1CC[C@@H]2CN(Cc3cccnc3)S(=O)(=O)[C@@H]2CC1 | -4.92% |
| O=C(CC1CC1)N1CCC2(CC1)CN(c1cccnc1)C(=O)CO2 | -4.69% |
| CCS(=O)(=O)N1CCC2(CC1)CN(c1cccnc1)C(=O)CO2 | -5.49% |
| CS(=O)(=O)NC[C@]12COC[C@H]1CN(CC1CCC1)C2 | -12.2% |
| CN(Cc1cncnc1)[C@@H]1CN(C(=O)C2CC2)[C@@H]2CCCO[C@H]12 | -3.07% |
| CN(Cc1cncnc1)[C@@H]1CN(C(=O)c2ccco2)[C@@H]2CCCO[C@H]12 | -3.82% |
| CC1CCN(C(=O)[C@@H]2C[C@@H]3CCN(Cc4nccs4)C[C@H]3O2)CC1 | -6.62% |
| CN(C)C(=O)[C@H]1C[C@@H]2CCN(Cc3ccoc3)C[C@@H]2O1 | -13.4% |
| Cn1cc(CNC2CCc3c(ccc(=O)n3Cc3ccncc3)C2)cn1 (stereo unspecified) | -15.3% |
| CCCN1CCC2(CC1)CN(C(=O)c1cccnc1)c1ccc(F)cc12 | -8.65% |
| CCN1CCC2(CC1)CN(C(=O)c1cccnc1)c1ccc(Cl)cc12 | -10.5% |
| O=C(NC[C@]12COC[C@H]1CN(Cc1cccnc1)C2)C1CCC1 | -4.65% |
| Cc1ccc(CN2CC3(CCN(C(=O)c4cccnc4)C3)C2)o1 | 3.03% |
| Cn1nc(COc2cccnc2)c2c1CCN(CC1CC1)C2 | -8.94% |
| COc1ccc(CN2CCO[C@H]3[C@H](OCc4ccncc4)CC[C@@H]32)cc1 | 58.1% |
| Cc1ccc(CN2CCn3cc(CN4CCN(C)CC4)nc3C2)cc1 | -13.5% |
| FC1(F)CCN(Cc2ccncc2)CC12CCN(c1cccnc1)C2 (stereo unspecified) | 2.6% |
